Measurements: a melting point compilation (Tetko et al.; mined from patent text by program, amines drawn as free bases though some values may be those of a salt)

Row | Compound | melting point
1 | NC(=O)c1nn(-c2ccc(S(N)(=O)=O)cc2)c2ccncc12 | 301 to 302 °C
2 | CS(=O)(=O)Oc1ccc([N+](=O)[O-])c(O)c1 | 123 to 124 °C
3 | Cc1ncc(C(=O)N(C)Cc2cc(C(F)(F)F)cc(C(F)(F)F)c2)c(-c2ccccc2Br)n1 | 122 °C
4 | c1ccc2nc(COc3cccc4cccnc34)ccc2c1 | 95 to 96 °C
5 | Cn1c(COc2ccc(CC3SC(=O)NC3=O)cc2)nc2ccc(Oc3ccc(O)cc3)cc21 (centres undefined) | 126 to 131 °C
6 | CN(C)CCc1cccc(OCCCCN2C(=O)c3ccccc3C2=O)c1 | 52 to 53 °C
7 | O=C(N1CCCC1)n1c(CN2CCN(c3ccccn3)CC2)nc2ccccc21 | 120 to 121 °C
8 | COc1cc(Nc2c(C#N)cnc3cc(-c4cccc(C=O)c4)sc23)c(Cl)cc1Cl | 262 to 263 °C
9 | BrCCCCOc1ccc(OCCCBr)cc1 | 73 to 76 °C
10 | CN1CCC(O)(c2cc(F)cc(F)c2)C1 (centres undefined) | 150 °C
11 | O=[N+]([O-])c1ccc(SC2SCC(O)C(O)C2O)cc1 (centres undefined) | 168 °C
12 | CCCc1nc2c(c(C)c(C)n3nnnc23)n1CC(C)(C)NC(=O)c1ccccc1 | 221 to 223 °C
13 | CC1(CC(CO)CO)SCCS1 | 72 to 73 °C
14 | O=C1OC(c2ccc(F)cc2)C(Cn2cncn2)(c2ccc(Cl)cc2Cl)O1 (centres undefined) | 191 to 192 °C
15 | CCn1ncc2c(NCc3ccc(C#N)cc3)c3ccccc3nc21 | 233 to 234 °C
16 | Nc1nc2c(ncn2[C@@H]2C[C@H](O)[C@@H](O)[C@H]2O)c(=O)[nH]1 (racemic) | 295 °C
17 | O=C1NC(=O)C(c2ccc(Oc3ccccc3)cc2)C(=O)N1 | > 240 °C
18 | CSc1nc(O)c(-c2ccccc2F)c(O)n1 | > 240 °C
19 | CCn1cc(C(=O)O)c(=O)c2cc(F)c(N3CC4CCCC3CN4C)c(F)c21 (centres undefined) | > 300 °C
20 | O=[N+]([O-])c1cc(Cl)c(OCCCO)c([N+](=O)[O-])c1OCCCO | 90 °C

Row | Compound | melting point
21 | O=[N+]([O-])C=C1C[N+]([O-])=C(c2ccccc2F)c2cc([N+](=O)[O-])ccc2N1 | 216 to 220 °C
22 | OCc1cccc(-n2cccc2)n1 | 55 °C
23 | c1cn(CCCCn2ccnc2)cn1 | 84 to 86 °C
24 | CC(C)OC(=O)CCN=c1sc2ccccc2s1 | 60 to 61 °C
25 | CCCCNc1ncnc2c1ncn2CCCN1CCC(NC(=O)c2ccccc2)CC1 | 190 to 192 °C
26 | CC(=O)SCC(Cc1cccnc1)C(=O)Nc1cccc(C(=O)O)c1 (centres undefined) | > 200 °C
27 | CC1(C)CNC(=Nc2ccccc2)S1 | 153 to 155 °C
28 | CCCc1nnc(CCc2cc(OCc3ccc(OCc4nc(-c5ccccc5)oc4C)c(OC)c3)nn2-c2ccccc2)o1 | 85 to 86 °C
29 | CC(=O)SC(C(C)=O)c1ccccc1 (centres undefined) | 31 to 32 °C
30 | Nc1cccc(-c2cccc3c2/C(=C/c2ccc[nH]2)C(=O)N3)c1 | 92 to 94 °C
31 | CCN1C(=O)NC(=C(C(C)=O)C(C)=O)C1=O | 152 to 153 °C
32 | CCCCCCCCCCCCc1ccc(C#Cc2c3ccccc3c(C#Cc3ccc(CCCCCCCCCCCC)cc3)c3ccccc23)cc1 | 111 to 113 °C
33 | Nc1ncnc2c1ncn2CC(=O)Nc1ccc(-n2nc(C(F)(F)F)cc2C2CC2)cc1 | 249 to 252 °C
34 | CCOC(=O)C(=NO)c1csc(C)n1 | 90 to 92 °C
35 | COc1ccc2c3c1OC1C(O)C(C)(C)C(C)C4C(C2)N(C)CCC314 (centres undefined) | 110 to 112 °C
36 | ICc1ccc2c(c1)OCO2 | 51 °C
37 | CCCCCS(=O)(=O)NC(=O)CCc1ccc(OCCOC)cc1Oc1ncc(Cl)cc1Cl | 92.2 to 93.6 °C
38 | O=C1CC[C@]2(O)C[C@H]1OC2=O | 144 to 145 °C
39 | Nc1nc2ccc(NC(=O)CNC(=O)[C@@H](Cc3ccccc3)NS(=O)(=O)Cc3ccccc3)cc2s1 | 127 to 130 °C
40 | Cc1cc(C)c2c(c1)N[C@@H](C(=O)O)[C@@H](C)C2=O (relative stereo) | 156 to 157 °C

Row | Compound | melting point
41 | CCc1cc(Cl)c2c(=O)cc(C(=O)O)[nH]c2c1 | 248 to 250 °C
42 | NCC1Cc2cc(C(F)(F)F)cc(-c3cc(F)ccc3F)c2O1 (centres undefined) | > 250 °C
43 | CC(=O)Nc1c(C(=O)c2cccs2)[nH]c2cc(Cl)ccc12 | 228 to 231 °C
44 | Cn1ncc2c(C(F)(F)F)cc(Cl)nc21 | 123 °C
45 | CC(C)Oc1cc(Oc2ccc(S(C)(=O)=O)cn2)cc2cc(C3=NCC(CCO)S3)[nH]c12 (centres undefined) | 172 to 173 °C
46 | CC(C)c1ccccc1NC(=O)c1ccccc1C(c1ccc(O)cc1)c1ccc(O)cc1 | 225 to 227 °C
47 | COc1nc(C)nc(NC(=O)NS(=O)(=O)c2cccc3c2C(Cl)=CC3)n1 | 168 to 170 °C
48 | C=C(CN(C)C)C(O)c1ncc2c(c1O)COC2c1ccccc1 (centres undefined) | 210 to 215 °C
49 | Nc1cc(-n2cc(C(=O)O)c(=O)c3cc(F)c(F)cc32)c(F)cc1F | > 270 °C
50 | CCOc1cc(OCCCc2cn(-c3ccc(C(F)(F)F)cn3)nc2OC)ccc1CCC(=O)O | 145 to 146 °C
51 | NS(=O)(=O)c1ccc(Br)c(Br)c1 | 169 to 171 °C
52 | CS(=O)(=O)c1cccnc1S(C)(=O)=O | 175 to 176 °C
53 | O=C(COc1noc(-c2ccccc2)c1Cl)NCCO[N+](=O)[O-] | 138 to 139 °C
54 | CSC1=NC(=O)C(=C(C)c2cc(C(C)(C)C)c(O)c(C(C)(C)C)c2)S1 | 206 to 209 °C
55 | Cc1sc(S(=O)(=O)NC(C)(C)CO)cc1NC(=O)c1cnn2c(C(F)(F)F)cc(-c3ccc(C(F)(F)F)cc3)nc12 | 225 °C
56 | O=S(=O)(CCl)c1cccc2ccccc12 | 103 to 105 °C
57 | CC(C)C(c1ccc(O)cc1)N1CCOCC1 (centres undefined) | 142 to 143 °C
58 | CCOCc1nc2c(N)nc3c4c2n1[C@@H](C)CN4CCC3 | 164 to 166 °C
59 | O=[N+]([O-])c1ccccc1SN1CCN(C2CC2)CC1 | 100 to 102 °C

Results, then the compound that gave them:

Row | melting point | Compound
60 | 84 to 85 °C | CON=C(c1cc(C)no1)c1ccccc1CON=C(C)c1ccc(Cl)c(Cl)c1
61 | 84 to 86 °C | CC(C)Oc1ccc(/C=C(\NC(=O)c2ccc(OCCC(F)(F)F)cc2)C(=O)NCCO)cc1
62 | 58 to 60 °C | COC(=O)C1=C2Nc3ccccc3C23CCN(Cc2ccccc2)C3CC1 (centres undefined)
63 | 140 to 146 °C | Cc1ccc(NC(=O)c2ccc([N+](=O)[O-])cc2)cc1
64 | 125 to 127 °C | O=C(c1ccc(O)cc1)c1ccon1
65 | 250 to 252 °C | NC(=O)c1sc2nccc(N3CCN(c4ccccc4)CC3)c2c1N
66 | 197 to 200 °C | COc1ccc(C=CC(=O)c2c(OC)cc(OC)cc2OC2OC(CO)C(O)C(O)C2NC(C)=O)cc1 (centres undefined)
67 | 72 to 80 °C | CC(C)N[C@H](C(=O)NCCCC(c1ccc(F)cc1)c1ccc(F)cc1)C(C)C
68 | 123 to 125 °C | CCN(CC)c1ccc(C2OC(=O)c3cc(N(C)C)ccc32)c(C)c1 (centres undefined)
69 | > 250 °C | CSc1nc(-c2cccnc2)n(-c2ccc(C)c(C)c2)c(=O)c1C#N
70 | 221 to 229 °C | COc1cn(-c2ccc(-n3nccc3O)cc2F)nc(-c2ccnn2-c2ccccc2)c1=O
71 | 79 to 81 °C | CCOC(=O)CC(O)c1ccc(-c2ccc([N+](=O)[O-])cc2)o1 (centres undefined)
72 | 169 to 172 °C | Cc1cc(C=O)ccc1C(=O)Nc1ncc(Cl)cn1
73 | > 320 °C | NS(=O)(=O)c1ccc(C(=O)Nc2cn3cc(Cl)ccc3n2)cc1
74 | 151 to 153 °C | COc1ccc(N(N=Cc2ccccc2)C(=O)c2ccccc2)cc1
75 | 201 to 202 °C | COc1c(NC(=O)c2cc3cccc(Oc4ccnc(NCCN5CCOCC5)n4)c3n2C)cc(C(C)(C)C)cc1NS(C)(=O)=O
76 | 104 °C | C=COCCONC(=O)c1ccc(F)cc1Nc1ccc(I)cc1F
77 | 69 to 70 °C | COC(=O)c1ccccc1Oc1ccc(C(F)(F)F)cc1[N+](=O)[O-]
78 | 220 to 221 °C | COC(=O)c1cc(NC(C)=O)cc(NC(C)=O)c1
79 | 197 to 200 °C | CC1=C(c2ccc(O)cc2)CCC(=O)N1

Row | melting point | Compound
80 | 59 to 60 °C | COC(=O)c1ccc(/C=C/Cc2cc3c(cc2C)CCC(C)(C)CC3)cc1
81 | 346 °C | Cn1cc(C(=O)O)c(=O)c2c3cc(F)c(N4CCN(c5ccc(F)cc5)CC4)cc3ncc21
82 | 214 to 216 °C | CC(=O)c1c(C)c(NC(=O)CC(C)(C)C)c(C)c2c1S(=O)CC2c1ccc(C(C)C)cc1 (centres undefined)
83 | 166 to 167 °C | Cc1nc(-c2ccccc2)nc(-c2ccncc2)c1NC(=O)OC(C)(C)C
84 | 148 to 150 °C | COc1ccc(-c2ccnc(Nc3cc(OC)c(OC)c(OC)c3)n2)cc1
85 | 113 to 115 °C | COc1ccc(N2CCN(c3c(C)c(C)c4c(c3C)C(O)(c3ccccn3)C(C)(C)O4)CC2)cc1 (centres undefined)
86 | 112 to 114 °C | COc1ccc2c(c1)C(=C1CCN(C)CC1)c1ccccc1C=C2
87 | 242 to 243 °C | CN(C)c1ccc(C=Cc2ccc(S(C)(=O)=O)cc2)cc1
88 | 186 to 187 °C | COc1cc2c(cc1OC)C(=O)C(=Cc1cccc([N+](=O)[O-])c1)CC2
89 | 150 to 152 °C | CCOC(=O)CC(=O)c1cc(C(CC(C)C)NC(=O)Cc2ccc(NC(=O)Nc3ccccc3Cl)cc2)no1 (centres undefined)
90 | 138 to 140 °C | COc1cc2c(cc1OC)CN(CCCc1cccc(NC(=O)c3cccc4c(=O)c5cccc(OC)c5[nH]c34)c1)CC2
91 | 211 to 213 °C | COc1ccc2c(ccc3c4ccc(OC)cc4c(=O)n(-c4ccc(O[Si](C)(C)C(C)(C)C)cc4)c23)c1
92 | 145 to 147 °C | Cc1cccc(NC(=O)NCC2(c3ccccc3)CCCCC2)c1
93 | 145 to 146 °C | CCCc1nc(C(C)(C)O)c(C(=O)OCC)n1Cc1ccc(-c2ccccc2C(=O)NC(C)(C)C)cc1
94 | 121 to 123 °C | Cc1cccc2c1NC(=O)C(CCCN1CCN(c3ccccc3F)CC1)S2 (centres undefined)
95 | 167 to 168 °C | COc1ccc(CN2CCN(CCCOc3ccc4c(C)cc(=O)[nH]c4c3)CC2)cc1
96 | 170 to 171 °C | O=C1SCC(O)=C1Cc1ccc(OCCc2ccccc2)cc1
97 | 137 °C | CC(C)(C)c1ccc(COc2ccc(S(=O)(=O)NC[C@@H](C(=O)NO)N3CCOCC3)cc2)cc1
98 | 95 to 98 °C | CN(C)c1ccc(C2NCCc3sccc32)cc1 (centres undefined)
99 | 145 to 147 °C | COc1c(C=CC(=O)O)cccc1Oc1ccccc1Cl
